Key:
human PCSK9 protein = assay: Protein ELISA: titers of vaccine-induced PCSK9-specific antibodies in plasma of immunized mice; format: in vivo, BALB/c mice; conditions: for titers against huPCSK9 (ODmax/2): mean titer, n=5 BALB/c mice/group, s.c. 4 x 15 μg net peptide coupled to KLH, Alhydrogel, plasma 2 weeks after final injection, titer = serum dilution at 50% ODmax; for capacity to elicit a humoral immune response targeting PCSK9: result in words
Experimental: (§1) The peptides were conjugated via the heterobifunctional linker GMBS (4-Maleimidobutyric acid N-hydroxysuccinimide ester) to KLH (Keyhole Limpet Hemocyanin).
5 BALB/c mice were subcutaneously immunized. Mice had access to food and water ad libitum and were kept under a 12 h light/dark cycle. The age of mice at the beginning of experiments was 8 to 10 weeks.
(§2) Mice were injected four times in 2 week intervals with 15 μg of net peptide coupled to KLH and adsorbed to Alhydrogel as adjuvant in a volume of 1 ml in total.
(§3) Blood was taken approximately 2 weeks after the final injection.
To determine the immunogenicity of the vaccines, and thus to identify the amount of PCSK9 specific antibodies in the plasma of immunized animals, ELISA immunoassay was performed. The ELISA immunoassay generates a signal which can be easily quantified and represents a quantitative measure of the amount of vaccine induced PCSK9-specific antibodies. Thus the titers as measured by ELISA correlate directly with the amount (μg/ml) of target specific antibodies in the plasma sample of treated animals. All plasma samples were collected two weeks after the final immunization and equality treated. In order to have a direct comparison, the quantitative evaluation by the PCSK9 Protein ELISA immunoassay of the vaccine induced PCSK9-specific antibodies and the comparison to their relative controls (originals sequence and negative control) was performed for all samples simultaneously. For this purpose, ELISA plates were coated with recombinantly expressed human PCSK9 protein. Unspecific binding was blocked by incubation with blocking buffer (1% BSA in PBS). Appropriate serum dilutions (with a starting dilution of 1:100) were added to the wells, serially diluted 1:2 fold (12 dilution steps) and incubated for approximately 1 hour. Bound antibodies were detected by incubation with anti-mouse IgG antibody, ABTS was added as substrate and the OD at 405 nm was measured. As negative control sera from the control group injected with an irrelevant peptide were analyzed. The titers were defined as the dilution of the serum where 50% of the ODmax in the assay is reached.

[1] = Total cholesterol assay in plasma of immunized mice (15 μg net peptide, four injections); format: in vivo, BALB/c mice; conditions: for TC in % (FIG. 2A) / TC in % (FIG. 2B): mean total cholesterol, single AA exchange; for TC in % (FIG. 2A): n=3 mice/group, negative control group (irrelevant peptide) set as 100%; for TC in % (FIG. 2B) / TC in % multiple AA exchanges (FIG. 2C): n=5 mice/group, negative control group set as 100%; for TC in % multiple AA exchanges (FIG. 2C): total cholesterol
Experimental: as §1
[…] Mice had access to food and water ad libitum and were kept under a 12 h light/dark cycle. The age of mice at the beginning of experiments was 8 to 10 weeks.
as §2, §3
(§4) All plasma samples were collected two weeks after the final immunization and equality treated. Total cholesterol (TC) measurements were performed simultaneously for all samples and side by side compared to their related controls (originals sequence and negative control). The simultaneous quantitative measurement of the plasma TC levels in mg/dL was measured by LabAssay™ Cholesterol Kit (Wako). In details, upon incubation with the chromogen reagent containing cholesterol esterase, the cholesterol esters in the samples were decomposed into free cholesterol and fatty acids. Subsequently the free cholesterol was oxidized by the cholesterol oxidase, leading to the simultaneously release of hydrogen peroxide. The produced hydrogen peroxide let DAOS and 4-Aminoantipyrin oxidize and condensate quantitatively by peroxidase (HRP), which produced blue pigment. Optical density was measured at 600 nm and quantification of the TC was calculated according to a standard curve.

huPCSK9 = assay: Inhibition of furin cleavage of huPCSK9 by plasma from vaccinated mice (SDS-PAGE / Western blot); format: biochemical, human; conditions: 4 μl mouse plasma, 250 ng biotinylated huPCSK9, 2 U furin overnight RT; FIG. 3; result in words
Experimental: The furin cleavage reaction was performed with 2 Units Furin (˜110 ng) (New England Biolabs) in PCSK9 buffer containing 100 mM Hepes Buffer pH 7.5, 5% Triton-X and 1 mM CaCl. In details, 4 μl mouse plasma from VARIOTOPE®s vaccinated mice was incubated with 250 ng biotinylated huPCSK9 (BPS Bioscience) in PCSK9 buffer for 1 h at room temperature. Subsequently, 2U Furin (˜110 ng) (New England Biolabs) was added to the reaction solution and incubated over night at RT. The reaction product was analyzed by SDS-PAGE under reducing conditions.

[2] = Reduction of total cholesterol (TC) in treated animals, additional experiments (1 μg net peptide, five injections); format: in vivo, mice; conditions: 5 animals per group, 5 x 1 μg net peptide
Experimental: as §4
In order to evaluate the ability of selected VARIOTOPE® vaccine candidates to reduce TC and to compare the magnitude of TC reduction in VARIOTOPE® treated animals with the TC reduction in animals treated with a vaccine containing the original sequence, 5 to 10 mice per group were injected five times in 2 week intervals with vaccines containing 1 μg of net peptide. […]

Substance: 1 (PEEDGTRFHRQASK) [compound 1]
- titers against huPCSK9 (ODmax/2) (human PCSK9 protein): 12074
- TC in % (FIG. 2A) [1]: 81%
- TC in % (FIG. 2B) [1]: 89%
- TC in % multiple AA exchanges (FIG. 2C) [1]: 81%

Substance: 2 (AEEDGTRFHRQASK) [compound 2]
- titers against huPCSK9 (ODmax/2) (human PCSK9 protein): 36869

Substance: 3 (PAEDGTRFHRQASK) [compound 3]
- titers against huPCSK9 (ODmax/2) (human PCSK9 protein): 2774

Substance: 4 (PEEDGTRFARQASK) [compound 4]
- titers against huPCSK9 (ODmax/2) (human PCSK9 protein): 21494

Substance: 5 (PEEDGTRFHAQASK) [compound 5]
- titers against huPCSK9 (ODmax/2) (human PCSK9 protein): 33442

Substance: 6 (PEEDGTRFHRAASK) [compound 6]
- titers against huPCSK9 (ODmax/2) (human PCSK9 protein): 22475

Substance: 7 (PEEDGTRFHRQAAK) [compound 7]
- titers against huPCSK9 (ODmax/2) (human PCSK9 protein): 15676

Substance: 8 (PEEDGTRFHRQASA) [compound 8]
- titers against huPCSK9 (ODmax/2) (human PCSK9 protein): 23638

Substance: 9 (TEEDGTRFHRQASK) [compound 9]
- titers against huPCSK9 (ODmax/2) (human PCSK9 protein): 23944

Substance: 10 (PQEDGTRFHRQASK) [compound 10]
- titers against huPCSK9 (ODmax/2) (human PCSK9 protein): 29228
- inhibition of furin cleavage of mature PCSK9 (aa153-692) / formation of truncated PCSK9 (aa219-692, ~50 kDa) by induced antibodies (huPCSK9): inhibit the formation of truncated furin cleaved PCSK9
- TC in % (FIG. 2A) [1]: 78%

Substance: 11 (PKEDGTRFHRQASK) [compound 11]
- titers against huPCSK9 (ODmax/2) (human PCSK9 protein): 6610

Substance: 12 (PEEDGSRFHRQASK) [compound 12]
- titers against huPCSK9 (ODmax/2) (human PCSK9 protein): 12636

Substance: 13 (PEEDGTRFHQQASK) [compound 13]
- titers against huPCSK9 (ODmax/2) (human PCSK9 protein): 18490

Substance: 14 (PEEDGTRFHKQASK) [compound 14]
- titers against huPCSK9 (ODmax/2) (human PCSK9 protein): 17795

Substance: 15 (PEEDGTRFHMQASK) [compound 15]
- titers against huPCSK9 (ODmax/2) (human PCSK9 protein): 15556

Substance: 16 (PEEDGTRFHREASK) [compound 16]
- titers against huPCSK9 (ODmax/2) (human PCSK9 protein): 18670

Substance: 17 (PEEDGTRFHRRASK) [compound 17]
- titers against huPCSK9 (ODmax/2) (human PCSK9 protein): 28996
- inhibition of furin cleavage of mature PCSK9 (aa153-692) / formation of truncated PCSK9 (aa219-692, ~50 kDa) by induced antibodies (huPCSK9): inhibit the formation of truncated furin cleaved PCSK9
- TC in % (FIG. 2A) [1]: 81%

Substance: 18 (PEEDGTRFHRKASK) [compound 18]
- titers against huPCSK9 (ODmax/2) (human PCSK9 protein): 30537
- inhibition of furin cleavage of mature PCSK9 (aa153-692) / formation of truncated PCSK9 (aa219-692, ~50 kDa) by induced antibodies (huPCSK9): inhibit the formation of truncated furin cleaved PCSK9
- TC in % (FIG. 2A) [1]: 81%

Substance: 19 (PEEDGTRFHRQSSK) [compound 19]
- titers against huPCSK9 (ODmax/2) (human PCSK9 protein): 41310

Substance: 20 (PEEDGTRFHRQATK) [compound 20]
- titers against huPCSK9 (ODmax/2) (human PCSK9 protein): 10813

Substance: 21 (PEEDGTRFHRQANK) [compound 21]
- titers against huPCSK9 (ODmax/2) (human PCSK9 protein): 15303

Substance: 22 (PEEDGTRFHRQALK) [compound 22]
- titers against huPCSK9 (ODmax/2) (human PCSK9 protein): 8694

Substance: 23 (PEEDGTRFHRQASR) [compound 23]
- titers against huPCSK9 (ODmax/2) (human PCSK9 protein): 14722
- TC in % (FIG. 2A) [1]: 70%

Substance: 24 (PEEDGTRFHRQASL) [compound 24]
- titers against huPCSK9 (ODmax/2) (human PCSK9 protein): 19471

Substance: 25 (KEEDGTRFHRQASK) [compound 25]
- titers against huPCSK9 (ODmax/2) (human PCSK9 protein): 19315

Substance: 26 (PEWDGTRFHRQASK) [compound 26]
- titers against huPCSK9 (ODmax/2) (human PCSK9 protein): 840

Substance: 27 (PEEDKTRFHRQASK) [compound 27]
- titers against huPCSK9 (ODmax/2) (human PCSK9 protein): 7154

Substance: 28 (PEEDGTGFHRQASK) [compound 28]
- titers against huPCSK9 (ODmax/2) (human PCSK9 protein): 0

Substance: 29 (PEEDGTRFSRQASK) [compound 29]
- titers against huPCSK9 (ODmax/2) (human PCSK9 protein): 33111

Substance: 30 (PEEDGTRFTRQASK) [compound 30]
- titers against huPCSK9 (ODmax/2) (human PCSK9 protein): 9519

Substance: 31 (PEEDGTRFVRQASK) [compound 31]
- titers against huPCSK9 (ODmax/2) (human PCSK9 protein): 11850

Substance: 32 (PEEDGTRFGRQASK) [compound 32]
- titers against huPCSK9 (ODmax/2) (human PCSK9 protein): 822

Substance: 33 (PEEDGTRFMRQASK) [compound 33]
- titers against huPCSK9 (ODmax/2) (human PCSK9 protein): 10651

Substance: 34 (PEEDGTRFHPQASK) [compound 34]
- titers against huPCSK9 (ODmax/2) (human PCSK9 protein): 20318

Substance: 35 (PEEDGTRFHSQASK) [compound 35]
- titers against huPCSK9 (ODmax/2) (human PCSK9 protein): 29223

Substance: 36 (PEEDGTRFHRTASK) [compound 36]
- titers against huPCSK9 (ODmax/2) (human PCSK9 protein): 29984
- TC in % (FIG. 2B) [1]: 72%

Substance: 37 (PEEDGTRFHRQTSK) [compound 37]
- titers against huPCSK9 (ODmax/2) (human PCSK9 protein): 25826

Substance: 38 (PEEDGTRFHRQASS) [compound 38]
- titers against huPCSK9 (ODmax/2) (human PCSK9 protein): 31481

Substance: 39 (PEEDGTRFHRQAST) [compound 39]
- titers against huPCSK9 (ODmax/2) (human PCSK9 protein): 13172

Substance: 40 (PEEDGTRFHRQASV) [compound 40]
- titers against huPCSK9 (ODmax/2) (human PCSK9 protein): 22678

Substance: 41 (PEEDGSRFHKQASK) [compound 41]
- titers against huPCSK9 (ODmax/2) (human PCSK9 protein): 37296
- TC in % multiple AA exchanges (FIG. 2C) [1]: 66%

Substance: 42 (PEEDGSRFHMQASK) [compound 42]
- titers against huPCSK9 (ODmax/2) (human PCSK9 protein): 18599

Substance: 43 (PEEDGSRFHRRASK) [compound 43]
- titers against huPCSK9 (ODmax/2) (human PCSK9 protein): 29435

Substance: 44 (PEEDGSRFHRQATK) [compound 44]
- titers against huPCSK9 (ODmax/2) (human PCSK9 protein): 20684
- TC in % multiple AA exchanges (FIG. 2C) [1]: 74%

Substance: 45 (PEEDGSRFHRRATK) [compound 45]
- titers against huPCSK9 (ODmax/2) (human PCSK9 protein): 11097

Substance: PEEDGTGFHRQASK [SEQ ID NO: 28]
- capacity to elicit a humoral immune response targeting PCSK9 (human PCSK9 protein): do not have the capacity to elicit a humoral immune response targeting PCSK9

Substance: PEEDGTRFGRQASK [SEQ ID NO: 32]
- capacity to elicit a humoral immune response targeting PCSK9 (human PCSK9 protein): do not have the capacity to elicit a humoral immune response targeting PCSK9

Substance: PEEDGTRFHRKASK [SEQ ID NO: 18]
- inhibition of furin cleavage of mature PCSK9 (aa153-692) / formation of truncated PCSK9 (aa219-692, ~50 kDa) by induced antibodies (huPCSK9): inhibit the furin cleavage of the mature PCSK9

Substance: PEEDGTRFHRQASL [SEQ ID NO: 24]
- TC values in comparison to the control group (FIG. 4) ([2]; control group set as 100%, result in words): possesses the ability to reduce TC levels compared to the negative control
- TC levels compared to the original peptide containing vaccine (FIG. 5) ([2]; original sequence group set to 0%, positive = higher TC): +9%

Substance: PEEDGTRFHRQASR [SEQ ID NO: 23]
- inhibition of furin cleavage of mature PCSK9 (aa153-692) / formation of truncated PCSK9 (aa219-692, ~50 kDa) by induced antibodies (huPCSK9): inhibit the furin cleavage of the mature PCSK9

Substance: PEEDGTRFHRRASK [SEQ ID NO: 17]
- inhibition of furin cleavage of mature PCSK9 (aa153-692) / formation of truncated PCSK9 (aa219-692, ~50 kDa) by induced antibodies (huPCSK9): inhibit the furin cleavage of the mature PCSK9

Substance: PEWDGTRFHRQASK [SEQ ID NO: 26]
- capacity to elicit a humoral immune response targeting PCSK9 (human PCSK9 protein): do not have the capacity to elicit a humoral immune response targeting PCSK9

Substance: PQEDGTRFHRQASK [SEQ ID NO: 10]
- inhibition of furin cleavage of mature PCSK9 (aa153-692) / formation of truncated PCSK9 (aa219-692, ~50 kDa) by induced antibodies (huPCSK9): inhibit the furin cleavage of the mature PCSK9
